Values quoted from earlier work as cited in patent US20230286919A1, “ISOQUINOLINE DERIVATIVES FOR USE IN THERAPY” (Vestlandets Innovasjonsselskap AS, priority 2020, published 2023).

Test system: STAT1 and STAT5
Conditions: cited from earlier work

Cc1ccc(S(=O)(=O)OCC(=O)Nc2ccc(C(=O)O)c(O)c2)cc1 [S3I-201]
Activity towards STAT1 and STAT5: low activity
